Test results from PubChem BioAssay AID236 (DTP/NCI, 2004).
Several values for one entry are separate records, joined by “and”; a condition that tells them apart may be missing. Equal values may be shown once. Toxic doses and inconclusive results are not listed.

System: AK4 lymphoid leukemia ip, C3AKF1 mice, survival
Test: NCI In Vivo Anticancer Drug Screen. Data for tumor model AK4 Lymphoid Leukemia (intraperitoneal) in C3AKF1 (CHKRF1) mice
Settings: endpoint: median survival time, higher = longer survival
Method: The antitumor activity of compounds was measured in mice bearing transplantable tumors. Survival or tumor size were measured and the results are expressed as the measurement made in the treated group (T) divided by the measurement made in the vehicle treated control group (C). The tumor model used in this assay is AK4 Lymphoid Leukemia (intraperitoneal) in C3AKF1 (CHKRF1) mice

[1] = dose: 12.5 mg/kg/injection, schedule: Q01DX010 (ip), vehicle: saline
[2] = dose: 25.0 mg/kg/injection, schedule: Q01DX010 (ip), vehicle: saline
[3] = dose: 62.5 mg/kg/injection, schedule: Q01DX010 (ip), vehicle: saline
[4] = dose: 0.5 mg/kg/injection, schedule: Q01DX010 (ip), vehicle: saline
[5] = dose: 1.0 mg/kg/injection, schedule: Q01DX010 (ip), vehicle: saline
[6] = dose: 2.0 mg/kg/injection, schedule: Q01DX010 (ip), vehicle: saline
[7] = dose: 4.0 mg/kg/injection, schedule: Q01DX010 (ip), vehicle: saline
[8] = dose: 250.0 micrograms/kg/injection, schedule: Q01DX010 (ip), vehicle: saline
[9] = dose: 60.0 mg/kg/injection, schedule: Q01DX010 (ip), vehicle: saline
[10] = dose: 100.0 mg/kg/injection, schedule: Q01DX010 (ip), vehicle: saline
[11] = dose: 200.0 mg/kg/injection, schedule: Q01DX010 (ip), vehicle: saline
[12] = dose: 2.5 mg/kg/injection, schedule: Q01DX010 (ip), vehicle: saline
[13] = dose: 5.0 mg/kg/injection, schedule: Q01DX010 (ip), vehicle: saline
[14] = dose: 8.0 mg/kg/injection, schedule: Q01DX010 (ip), vehicle: saline
[15] = dose: 10.0 mg/kg/injection, schedule: Q01DX010 (ip), vehicle: saline
[16] = dose: 16.0 mg/kg/injection, schedule: Q01DX010 (ip), vehicle: saline
[17] = dose: 20.0 mg/kg/injection, schedule: Q01DX010 (ip), vehicle: saline
[18] = dose: 40.0 mg/kg/injection, schedule: Q01DX010 (ip), vehicle: saline
[19] = dose: 80.0 mg/kg/injection, schedule: Q01DX010 (ip), vehicle: saline
[20] = dose: 7.5 mg/kg/injection, schedule: Q01DX010 (ip), vehicle: saline
[21] = dose: 15.0 mg/kg/injection, schedule: Q01DX010 (ip), vehicle: saline
[22] = dose: 30.0 mg/kg/injection, schedule: Q01DX010 (ip), vehicle: saline
[23] = dose: 6.25 mg/kg/injection, schedule: Q01DX010 (ip), vehicle: saline
[24] = dose: 50.0 mg/kg/injection, schedule: Q01DX010 (ip), vehicle: saline

Structure (SMILES): N=[N+]=CC(=O)OCC(N)C(=O)O (stereo unspecified)
- T/C (dose: 3.13 mg/kg/injection, schedule: Q01DX010 (ip), vehicle: saline): 122 % of control
- T/C [1]: 113 % of control
- T/C [2]: 100 % of control and 86 % of control

Structure (SMILES): O=CN(O)CC(=O)O
- T/C [3]: 100 % of control
- T/C (dose: 500.0 mg/kg/injection, schedule: Q01DX010 (ip), vehicle: saline): 90 % of control

Structure (SMILES): Nc1nc(F)nc2c1ncn2C1OC(CO)C(O)C1O (stereo unspecified)
- T/C [4]: 105 % of control
- T/C [5]: 100 % of control
- T/C [6]: 100 % of control and 111 % of control
- T/C [7]: 100 % of control and 105 % of control

Structure (SMILES): N#Cc1cn(C2OC(CO)C(O)C2O)c2ncnc(N)c12 (stereo unspecified)
- T/C (dose: 31.3 micrograms/kg/injection, schedule: Q01DX010 (ip), vehicle: saline): 100 % of control
- T/C (dose: 62.5 micrograms/kg/injection, schedule: Q01DX010 (ip), vehicle: saline): 100 % of control
- T/C (dose: 125.0 micrograms/kg/injection, schedule: Q01DX010 (ip), vehicle: saline): 118 % of control
- T/C [8]: 100 % of control

Structure (SMILES): CN(N=O)C(=O)NC(C=O)C(O)C(O)C(O)CO (stereo unspecified)
- T/C [9]: 150 % of control
- T/C (dose: 90.0 mg/kg/injection, schedule: Q01DX010 (ip), vehicle: saline): 150 % of control

Structure (SMILES): NC(Cc1c[nH]c2ccc(N(CCCl)CCCl)cc12)C(=O)O (stereo unspecified)
- T/C [6]: 156 % of control
- T/C [7]: 175 % of control

Structure (SMILES): CN(C)/N=N/c1nc[nH]c1C(N)=O
- T/C [10]: 155 % of control and 166 % of control
- T/C [11]: 177 % of control and 205 % of control

Structure (SMILES): NC(Cc1ccc(N(CCCl)CCCl)cc1)C(=O)O (stereo unspecified)
- T/C [6]: 150 % of control
- T/C [12]: 164 % of control
- T/C [13]: 164 % of control
- T/C [14]: 150 % of control
- T/C [15]: 158 % of control
- T/C [16]: 100 % of control
- T/C [17]: 117 % of control

Structure (SMILES): CCn1cnc2c(=S)nc[nH]c21
- T/C (dose: 15.6 mg/kg/injection, schedule: Q01DX010 (ip), vehicle: saline): 100 % of control
- T/C (dose: 31.3 mg/kg/injection, schedule: Q01DX010 (ip), vehicle: saline): 88 % of control
- T/C [3]: 88 % of control
- T/C (dose: 125.0 mg/kg/injection, schedule: Q01DX010 (ip), vehicle: saline): 105 % of control

Structure (SMILES): Nc1nc2n[nH]nc2c(=O)[nH]1
- T/C (dose: 25.0 mg/kg/injection, schedule: Q01DX010 (ip), vehicle: alkali diluted with saline): 100 % of control and 115 % of control
- T/C (dose: 50.0 mg/kg/injection, schedule: Q01DX010 (ip), vehicle: alkali diluted with saline): 105 % of control and 120 % of control
- T/C (dose: 100.0 mg/kg/injection, schedule: Q01DX010 (ip), vehicle: alkali diluted with saline): 100 % of control and 110 % of control
- T/C (dose: 200.0 mg/kg/injection, schedule: Q01DX010 (ip), vehicle: alkali diluted with saline): 100 % of control and 110 % of control

Structure (SMILES): CC1CCOS(=O)O1 (stereo unspecified)
- T/C [15]: 100 % of control
- T/C [17]: 88 % of control and 100 % of control
- T/C [18]: 90 % of control and 100 % of control
- T/C [19]: 88 % of control

Structure (SMILES): NC(=O)N(CCCl)N=O
- T/C [4]: 162 % of control
- T/C [5]: 168 % of control and 200 % of control
- T/C [7]: 87 % of control

Structure (SMILES): O[C@H](CN1CC1)[C@@H](O)CN1CC1
- T/C [8]: 164 % of control
- T/C (dose: 1000.0 micrograms/kg/injection, schedule: Q01DX010 (ip), vehicle: saline): 105 % of control

Structure (SMILES): C=CC(CN1CC1)OC(C)=O (stereo unspecified)
- T/C [6]: 90 % of control and 100 % of control
- T/C [7]: 95 % of control and 111 % of control
- T/C [14]: 88 % of control and 120 % of control
- T/C [16]: 90 % of control

Structure (SMILES): Clc1ncnc2nc[nH]c12
- T/C [20]: 100 % of control and 87 % of control
- T/C [21]: 100 % of control and 114 % of control
- T/C [22]: 100 % of control and 87 % of control
- T/C [9]: 87 % of control and 100 % of control

Structure (SMILES): CS(=O)(=O)OCCCCOS(C)(=O)=O
- T/C [23]: 87 % of control and 100 % of control
- T/C [1]: 100 % of control and 87 % of control
- T/C [2]: 100 % of control
- T/C [24]: 87 % of control and 100 % of control

Structure (SMILES): Nc1nc(=S)c2ncn(C3OC(CO)C(O)C3O)c2[nH]1 (stereo unspecified)
- T/C [6]: 117 % of control
- T/C [7]: 111 % of control
- T/C [14]: 117 % of control
- T/C [16]: 94 % of control

Structure (SMILES): CC(=O)Nc1ccc2nc3ccc(NC(C)=O)cc3[n+](-c3ccccc3)c2c1
- T/C [24]: 117 % of control
- T/C [10]: 105 % of control
- T/C [11]: 117 % of control
- T/C (dose: 400.0 mg/kg/injection, schedule: Q01DX010 (ip), vehicle: saline): 105 % of control

Structure (SMILES): CCCCn1cnc2c(=S)nc[nH]c21
- T/C [16]: 100 % of control
- T/C (dose: 32.0 mg/kg/injection, schedule: Q01DX010 (ip), vehicle: saline): 90 % of control and 122 % of control
- T/C (dose: 64.0 mg/kg/injection, schedule: Q01DX010 (ip), vehicle: saline): 90 % of control and 111 % of control
- T/C (dose: 128.0 mg/kg/injection, schedule: Q01DX010 (ip), vehicle: saline): 94 % of control and 100 % of control

Structure (SMILES): Cn1c(N)nc2nc[nH]c2c1=S
- T/C [13]: 100 % of control
- T/C [15]: 100 % of control and 122 % of control
- T/C [17]: 88 % of control and 105 % of control
- T/C [18]: 88 % of control and 100 % of control
- T/C [19]: 111 % of control

Structure (SMILES): CC[C@@H](c1ccc(O)cc1)[C@@H](CC)c1ccc(O)cc1
- T/C (dose: 25.0 mg/kg/injection, schedule: Q01DX010 (ip), vehicle: water): 100 % of control
- T/C (dose: 50.0 mg/kg/injection, schedule: Q01DX010 (ip), vehicle: water): 87 % of control
- T/C (dose: 100.0 mg/kg/injection, schedule: Q01DX010 (ip), vehicle: water): 87 % of control
- T/C (dose: 200.0 mg/kg/injection, schedule: Q01DX010 (ip), vehicle: water): 87 % of control

Structure (SMILES): CN(C)[C@@H]1C(=O)C(C(N)=O)=C(O)[C@@]2(O)C(=O)C3=C(O)c4c(O)cccc4C[C@H]3C[C@@H]12
- T/C [20]: 100 % of control
- T/C [21]: 100 % of control and 105 % of control
- T/C [22]: 100 % of control
- T/C [9]: 94 % of control

Structure (SMILES): N#CCSc1ncnc2nc[nH]c12
- T/C [21]: 87 % of control
- T/C [22]: 93 % of control
- T/C [9]: 93 % of control
- T/C (dose: 120.0 mg/kg/injection, schedule: Q01DX010 (ip), vehicle: saline): 87 % of control

Structure (SMILES): N#[N+]c1cnc([O-])[nH]c1=O
- T/C (dose: 1.25 mg/kg/injection, schedule: Q01DX010 (ip), vehicle: saline): 100 % of control
- T/C [12]: 100 % of control
- T/C [13]: 100 % of control
- T/C [15]: 100 % of control

Structure (SMILES): CCC(=O)O[C@H]1CC[C@H]2[C@@H]3CCC4=CC(=O)CC[C@]4(C)[C@H]3CC[C@]12C
- T/C (dose: 125.0 mg/kg/injection, schedule: Q01DX010 (sc), vehicle: steriod suspending solution): 87 % of control
- T/C (dose: 250.0 mg/kg/injection, schedule: Q01DX010 (sc), vehicle: steriod suspending solution): 87 % of control
- T/C (dose: 500.0 mg/kg/injection, schedule: Q01DX010 (sc), vehicle: steriod suspending solution): 93 % of control
- T/C (dose: 1000.0 mg/kg/injection, schedule: Q01DX010 (sc), vehicle: steriod suspending solution): 87 % of control

Structure (SMILES): C[C@]12C=CC(=O)C=C1CC[C@@H]1[C@@H]2[C@@H](O)C[C@@]2(C)[C@H]1CC[C@]2(O)C(=O)CO
- T/C (dose: 12.5 mg/kg/injection, schedule: Q01DX010 (sc), vehicle: steriod suspending solution): 90 % of control and 110 % of control
- T/C (dose: 25.0 mg/kg/injection, schedule: Q01DX010 (sc), vehicle: steriod suspending solution): 95 % of control
- T/C (dose: 50.0 mg/kg/injection, schedule: Q01DX010 (sc), vehicle: steriod suspending solution): 100 % of control and 105 % of control
- T/C (dose: 100.0 mg/kg/injection, schedule: Q01DX010 (sc), vehicle: steriod suspending solution): 90 % of control

Structure (SMILES): Nc1nc(N)c2nc(CNc3ccc(C(=O)NC(CCC(=O)O)C(=O)O)cc3)cnc2n1 (stereo unspecified)
- T/C (dose: 0.05 mg/kg/injection, schedule: Q01DX010 (ip), vehicle: other): 120 % of control
- T/C (dose: 0.1 mg/kg/injection, schedule: Q01DX010 (ip), vehicle: other): 160 % of control and 215 % of control
- T/C (dose: 0.2 mg/kg/injection, schedule: Q01DX010 (ip), vehicle: other): 180 % of control and 300 % of control

Structure (SMILES): O=NN(CCCl)C(=O)NCCCl
- T/C [23]: 168 % of control and 185 % of control
- T/C [1]: 160 % of control and 181 % of control
